Measurements: US10034886B2, “GLP-1 receptor modulators” (Celgene International II SÀRL, priority 2014, dated 2018)

molecular target: T1, GLP-1R (Homo sapiens, UniProt P43220); experiment: EC20 GLP-1(9-36) PAM cAMP assay: dose response of compound in the presence of fixed concentration of GLP-1(9-36); assay type: cell-based; conditions: GLP-1R CRE-bla CHO-K1 cells, compound dose response with fixed concentration of GLP-1(9-36), read-out: EC20 GLP-1(9-36) PAM EC50
T1 construct: host or cells: GLP-1R CRE-bla CHO-K1 cells
T1 sequence (P43220 24-463): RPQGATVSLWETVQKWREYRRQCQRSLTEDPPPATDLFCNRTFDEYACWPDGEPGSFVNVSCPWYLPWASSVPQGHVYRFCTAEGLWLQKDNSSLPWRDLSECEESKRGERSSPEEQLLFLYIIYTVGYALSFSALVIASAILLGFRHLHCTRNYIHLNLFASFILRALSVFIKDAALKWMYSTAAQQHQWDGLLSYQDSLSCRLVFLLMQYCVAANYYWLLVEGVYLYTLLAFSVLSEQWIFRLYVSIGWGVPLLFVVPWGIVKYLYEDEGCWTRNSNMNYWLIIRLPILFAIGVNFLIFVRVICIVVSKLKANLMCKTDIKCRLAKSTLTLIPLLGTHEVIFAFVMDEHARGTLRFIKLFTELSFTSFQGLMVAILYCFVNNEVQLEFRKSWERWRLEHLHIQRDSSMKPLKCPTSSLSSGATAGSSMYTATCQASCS
T1 sequence (P01275 100-127 partner limits assumed): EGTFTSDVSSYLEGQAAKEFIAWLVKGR
Procedure: EC20 GLP-1(9-36) PAM cAMP Assay: Dose Response of Compound in the Presence of Fixed Concentration of GLP-1 (9-36).
GLP-1R CRE-bla CHO-K1 cells cultured in growth medium (DMEM-High glucose, 10% dialyzed FBS, 0.1 mM NEAA, 25 mM Hepes, 100 U/mL penicillin/100 μg/mL streptomycin, 5 μg/mL Blasticidin, 600 μg/mL Hygromycin) were trypsinized and plated in suspension into 384 well white flat bottom plates at 5000 cells/well in 12 μL assay buffer (Hanks Balanced Salt solution, 10 mM hepes, 0.1% BSA, pH 7.4). A 5× compound dose response curve (12-point) was generated in assay buffer containing 1.5 mM IBMX, 4% DMSO. GLP-1(9-36) was diluted to 4.2 μM in assay buffer containing 1.5 mM IMBX and 4% DMSO. The 5× compound dose response was added (3 μL), followed by 0.5 μL of GLP-1(9-36) and cells were incubated for 30 min at 37° C. Direct detection of cAMP was carried out using DiscoveRx HitHunter cAMP kit according to manufacturer's instructions and luminescence was read using a SpectraMax M5 plate reader. Luminescence was converted to total cAMP using a cAMP standard curve and data was analyzed by non-linear regression to determine the EC50 and Emax.
GLP-1(7-36): […]-NH2 (SEQ ID NO: 2). GLP-1(9-36): […]-NH2 (SEQ ID NO: 3). GLP-1(7-36) was purchased from GenScript. GLP-1(9-36) was purchased from Biopeptide Co., Inc.
The EC20GLP-1(9-36) PAM Activity range is denoted as follows: + denotes activity <0.8 μM, ++ denotes activity between 0.8 and 2.5 μM, +++ denotes activity between 2.5 and 5 μM, and ++++ denotes activity 5 to 10 μM.

Row | Compound | EC50
1 | CCCOc1ccc(C(=O)N[C@@H](Cc2ccc(-c3ncc(-c4ccc(OCCCC(C)C)cc4)cn3)cc2)C(=O)N2CC(C(=O)O)C2)cc1 [Compound 1235] | 2500 to 5000 nM
2 | CCC[C@H]1CC[C@H](C2CCN(c3cnc(-c4ccc(C[C@H](NC(=O)c5ccc(S(=O)(=O)C(C)C)cc5)C(=O)N5CC(C(=O)O)C5)cc4)nc3)CC2)CC1 [Compound 1523] | 800 to 2500 nM
3 | CC[C@H]1CC[C@H](c2ccc(-c3cnc(-c4ccc(C[C@H](NC(=O)c5ccc(OC(F)(F)F)cc5)C(=O)O)cc4)nc3)cc2)CC1 [Compound 1384] | 800 to 2500 nM
4 | CC(C)(C)c1ccc(C(=O)N[C@@H](Cc2ccc(-c3ncc(-c4ccc(-c5ccc(C6CCCC6)cc5)cc4F)cn3)cc2)C(=O)N2CC(C(=O)O)C2)s1 [Compound 1211] | < 800 nM
5 | CC[C@H]1CC[C@H](c2ccc(-c3ccc(-c4ccc(C[C@H](NC(=O)c5ccc(C(C)(C)C)s5)C(=O)N5CC(C(=O)O)C5)cc4)nc3)cc2)CC1 [Compound 1334] | < 800 nM
6 | CCCc1ccc(-c2ccc(-c3cnc(-c4ccc(C[C@H](NC(=O)c5ccc(C6CC6)cc5)C(=O)N5CC(C(=O)O)C5)cc4)nc3)c(F)c2)cc1 [Compound 1410] | < 800 nM

Now from value to compound:

Row | EC50 | Compound
7 | < 800 nM | CCCCC1CCC(C2CCN(c3cnc(-c4ccc(C[C@H](NC(=O)c5ccc(C(C)(C)C)s5)C(=O)N5CC(C(=O)O)C5)cc4)nc3)CC2)CC1 (stereo partly shown) [Compound 1428]
8 | 800 to 2500 nM | CCOc1ccc(C(=O)N[C@@H](Cc2ccc(-c3ncc(-c4ccc(OCCCC(C)C)cc4)cn3)cc2)C(=O)N2CC(C(=O)O)C2)cc1 [Compound 1230]

same assay, conditions: dose response of compound in presence of fixed concentration of GLP-1(9-36), GLP-1R CRE-bla CHO-K1 cells, read-out: EC20 GLP-1(9-36) PAM EC50

Row | Compound | EC50
9 | CC(C)(C)c1ccc(C(=O)N[C@@H](Cc2ccc(-c3ncc(-c4ccc(-c5ccccc5)cc4)cn3)cc2)C(=O)N2CCC[C@H]2C(=O)O)s1 [Compound 1124] | < 800 nM
10 | CCCCCCCOc1ccc(-c2cnc(-c3ccc(C[C@H](NC(=O)c4ccc(C(C)(C)C)s4)C(=O)NC(C(=O)O)C(O)c4ccc(C#N)cc4)cc3)nc2)cc1 (stereo partly shown) [Compound 911] | 800 to 2500 nM
11 | CCCCCCCOc1ccc(-c2cnc(-c3ccc(C[C@H](NC(=O)c4ccc(C(C)(C)C)s4)C(=O)NC(C(=O)O)c4ccc(OC)cc4)cc3)nc2)cc1 (stereo partly shown) [Compound 619] | 800 to 2500 nM
12 | CCCCCCCOc1ccc(-c2cnc(-c3ccc(C[C@H](NC(=O)c4ccc(C(C)(C)C)s4)C(=O)NC[C@H]4C[C@H](N)C4)cc3)nc2)cc1 [Compound 879] | 2500 to 5000 nM
13 | CC(C)(C)CCCOc1ccc(-c2cnc(-c3ccc(C[C@H](NC(=O)c4ccc(C(C)(C)C)s4)C(=O)N4CC(C(=O)O)C4)cc3)nc2)cc1 [Compound 944] | < 800 nM
14 | CCCCCCCOc1ccc(-c2cnc(-c3ccc(C[C@H](NC(=O)c4ccc(C(C)(C)C)s4)C(=O)NC(C(=O)O)C(O)c4ccc(S(C)(=O)=O)cc4)cc3)nc2)cc1 (stereo partly shown) [Compound 655] | 800 to 2500 nM
15 | CCCCCCCOc1ccc(-c2cnc(-c3ccc(C[C@H](NC(=O)c4ccc(C(C)(C)C)cc4)C(=O)N4C[C@@H](O)C[C@@H]4C(=O)O)cc3)nc2)cc1 [Compound 586] | < 800 nM
16 | CCCCCCCOc1ccc(-c2cnc(-c3ccc(C[C@H](NC(=O)c4ccc(C(C)(C)C)s4)C(=O)N4CCC[C@H]4C(=O)O)cc3)nc2)nc1 [Compound 1064] | 800 to 2500 nM
17 | CCCCCCCOc1ccc(-c2cnc(-c3ccc(C[C@H](NC(=O)c4ccc(C(C)(C)C)s4)C(=O)N[C@@H](CC(=O)NCCO)C(=O)O)cc3)nc2)cc1 [Compound 521] | < 800 nM
18 | CC(C)CCCOc1ccc(-c2cnc(-c3ccc(C[C@H](NC(=O)c4ccc(C(C)(C)C)s4)C(=O)N4CC[C@H](C(=O)O)C4)cc3)nc2)cc1 [Compound 773] | 800 to 2500 nM
19 | CCCCCCCOc1ccc(-c2cnc(-c3ccc(C[C@H](NC(=O)c4ccc(C(C)(C)C)s4)C(=O)NCCN)cc3)nc2)cc1 [Compound 384] | 5000 to 10000 nM
20 | CCCCCCCOc1ccc(-c2cnc(-c3ccc(C[C@H](NC(=O)c4ccc(C(C)(C)C)s4)C(=O)NCC4(C(=O)OC)CCNCC4)cc3)nc2)cc1 [Compound 605] | < 800 nM
21 | CCCCCCCOc1ccc(-c2cnc(-c3ccc(C[C@H](NC(=O)Cc4ccc(OCCCC)cc4)C(=O)N4CCC[C@H]4C(=O)O)cc3)nc2)cc1 [Compound 1070] | 800 to 2500 nM
22 | C[C@@H](NC(=O)[C@H](Cc1ccc(-c2ncc(-c3ccc(C4=CCC(C)(C)CC4)cc3)cn2)cc1)NC(=O)c1ccc(C(C)(C)C)s1)C(=O)O [Compound 1150] | < 800 nM
23 | CCCCCCCOc1ccc(-c2cnc(-c3ccc(C[C@H](NC(=O)c4ccc(C(C)(C)C)s4)C(=O)NC)cc3)nc2)cc1 [Compound 383] | 2500 to 5000 nM

The remaining lines, values ahead:

Row | EC50 | Compound
24 | 800 to 2500 nM | CCCCCCCOc1ccc(-c2cnc(-c3ccc(C[C@H](NC(=O)c4ccc(C(C)(C)C)s4)C(=O)N[C@@H](C(=O)O)[C@@H](C)CC)cc3)nc2)cc1 [Compound 656]
25 | 800 to 2500 nM | CCCCOc1ccc(CC(=O)N[C@@H](Cc2ccc(-c3ncc(-c4ccc([C@H]5CC[C@H](CC)CC5)cc4)cn3)cc2)C(=O)N2CC(C(=O)O)C2)cc1 [Compound 1161]
26 | 2500 to 5000 nM | CCCCCCCOc1ccc(-c2cnc(-c3ccc(C[C@H](NC(=O)c4cc5cc(OC)ccc5[nH]4)C(=O)N[C@H](C)C(=O)O)cc3)nc2)cc1 [Compound 990]
27 | < 800 nM | CCCCCCCOc1ccc(-c2cnc(-c3ccc(C[C@H](NC(=O)c4ccc(C(C)(C)C)s4)C(=O)N[C@@H](CC(=O)O)C(=O)N(C)C)cc3)nc2)cc1 [Compound 527]
28 | 800 to 2500 nM | CCCCCCCOc1ccc(-c2cnc(-c3ccc(C[C@H](NC(=O)c4ccc(CC)s4)C(=O)N4CC[C@H](C(=O)O)C4)cc3)nc2)cc1 [Compound 863]
29 | 800 to 2500 nM | CCc1ccc(/C=C/c2cnc(-c3ccc(C[C@H](NC(=O)c4ccc(C(C)(C)C)s4)C(=O)N4CCC[C@H]4C(=O)O)cc3)nc2)cc1 [Compound 1126]
30 | 2500 to 5000 nM | CCSc1ccc(-c2cnc(-c3ccc(C[C@H](NC(=O)c4ccc(C(C)(C)C)s4)C(=O)N[C@H](C)C(=O)O)cc3)nc2)cc1 [Compound 998]
31 | 800 to 2500 nM | CCCCCCCOc1ccc(-c2cnc(-c3ccc(CC(NC(=O)c4ccc(C(C)(C)C)s4)C(=O)Nc4cccc(C(=O)O)c4)cc3)nc2)cc1 (stereo not shown) [Compound 441]
32 | 800 to 2500 nM | CCCCCCCOc1ccc(-c2cnc(-c3ccc(C[C@H](NC(=O)c4ccc(C(C)(C)C)s4)C(=O)N[C@H](C(=O)O)[C@H](O)C(C)C)cc3)nc2)cc1 [Compound 881]
33 | < 800 nM | CCCCCCCOc1ccc(-c2cnc(-c3ccc(C[C@H](NC(=O)c4ccc(C(C)(C)C)s4)C(=O)N4CC(C(=O)NS(=O)(=O)CC(=O)OC)C4)cc3)nc2)cc1 [Compound 654, methyl (S)-2-(N-(1-(2-(5-(tert-butyl)thiophene-2-carboxamido)-3-(4-(5-(4-(heptyloxy)phenyl)pyrimidin-2-yl)phenyl)propanoyl)azetidine-3-carbonyl)sulfamoyl)acetate]
34 | 800 to 2500 nM | CCCCCCCOc1ccc(-c2ccc(-c3ccc(C[C@H](NC(=O)c4ccc(C(C)(C)C)cc4)C(=O)O)cc3)nn2)cc1 [Compound 273]
35 | < 800 nM | CCCCCCCOc1ccc(-c2cnc(-c3ccc(C[C@H](NC(=O)c4ccc(C(C)(C)C)s4)C(=O)N[C@@H](CC(=O)NCC(=O)O)C(=O)O)cc3)nc2)cc1 [Compound 515]
36 | 800 to 2500 nM | CCCCCCCOc1ccc2nc(-c3ccc(C[C@H](NC(=O)c4ccc(C(C)(C)C)cc4)C(=O)N[C@H](C)C(=O)O)cc3)ncc2c1 [Compound 809]
37 | < 800 nM | CCCCCCCOc1ccc(-c2cnc(-c3ccc(C[C@H](NC(=O)c4ccc(C(C)(C)C)s4)C(=O)N[C@@H](CC(=O)O)C(=O)N4CCCC4)cc3)nc2)cc1 [Compound 528]
